The numbers were not newly measured in patent publication US11497741B2, “Granules containing diamine derivative” (DAIICHI SANKYO COMPANY, LIMITED, priority 2018, dated 2022), which cites them from elsewhere.

Regarding `CN1CCc2nc(C(=O)N[C@@H]3C[C@@H](C(=O)N(C)C)CC[C@@H]3NC(=O)C(=O)Nc3ccc(Cl)cn3)sc2C1` [Edoxaban, N^1-(5-Chloropyridin-2-yl)-N^2-((1S,2R,4S)-4-[(dimethylamino)carbonyl]-2-{[(5-methyl-4,5,6,7-tetrahydrothiazolo[5,4-c]pyridin-2-yl)carbonyl]amino}cyclohexyl)ethanediamide], the “solubility (water solubility)” value (neutral aqueous solution (neutral buffer solution)) is given as “reduced solubility”. The solubility entry (strongly acidic aqueous solution) was “good solubility”.
